Source: article PMC10281575, “PfCRT mutations conferring piperaquine resistance in falciparum malaria shape the kinetics of quinoline drug binding and transport” (PLOS Pathogens, 2023)
Several values for one entry are separate records, joined by “and”; a condition that tells them apart may be missing. Equal values may be shown once.

Key:
PfCRT^Dd2_M343L = target: T1, PfCRT^Dd2_M343L (Plasmodium falciparum, UniProt Q8IBZ9, A220S/I356T/K76T/M343L/M74I/N326S/N75E/Q271E/R371I); assay: Radiolabeled drug uptake in X. laevis oocytes expressing PfCRT^Dd2_M343L; assay type: cell-based
T1 construct: expressed in transfected cells; host or cells: Xenopus laevis oocytes injected with in vitro transcribed RNA (pSP64T)
T1 sequence (Q8IBZ9 1-424 M74I/N75E/K76T/A220S/Q271E/N326S/M343L/I356T/R371I): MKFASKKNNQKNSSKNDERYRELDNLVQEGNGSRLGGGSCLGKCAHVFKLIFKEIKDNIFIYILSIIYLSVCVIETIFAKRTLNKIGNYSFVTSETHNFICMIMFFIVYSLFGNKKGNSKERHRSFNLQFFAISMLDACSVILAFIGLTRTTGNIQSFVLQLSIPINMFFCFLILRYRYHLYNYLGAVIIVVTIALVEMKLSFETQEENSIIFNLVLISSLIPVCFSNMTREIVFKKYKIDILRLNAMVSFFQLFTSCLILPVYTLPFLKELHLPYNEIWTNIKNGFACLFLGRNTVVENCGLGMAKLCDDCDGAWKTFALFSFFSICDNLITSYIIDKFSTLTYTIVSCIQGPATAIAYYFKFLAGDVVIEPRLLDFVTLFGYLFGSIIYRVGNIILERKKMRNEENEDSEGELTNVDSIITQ
From the text: A codon-optimized coding sequence of the Dd2 isoform of PfCRT (PfCRT^Dd2) was subcloned into the pSP64T expression vector [21]. To generate the necessary mutations to introduce the amino acid substitutions H97Y, F145I, M343L or G353V into the pfcrt sequence, the overlap extension method was used. A region from the 5’-untranslated Xenopus β-globin sequence to the respective 3’ region, containing the full length pfcrt coding sequence, was amplified using the following primer pairs: for the H97Y mutation, numbers 1/4 and 2/3; for the F145I mutation, numbers 1/6 and 2/5; for the M343L mutation, numbers 1/8 and 2/7; and for the G353V mutation, numbers 1/10 and 2/9 (for primers, see S2 Table). Both PCR products were used as template for amplification of the final product using primers number 1/2. The resulting fragment was cloned into the pSP64T expression vector, and the presence of the desired mutation was confirmed by sequencing.
(§1) Adult female X. laevis frogs (purchased from NASCO) were anesthetized by submersion in a solution of 0.3% (w/v) 3-amino benzoate methanesulfonate for 15 min. Sections of the ovary were surgically removed and placed in Ca^2+-free ND96 buffer supplemented with 0.1% collagenase D (w/v; Roche), 0.5% BSA (w/v) and 9 mM Na2HPO4 at 18°C for 14–16 h while gently shaking. The oocytes were then washed several times with ND96 buffer (5 mM HEPES, pH 7.5, 96 mM NaCl, 2 mM KCl, 1.8 mM CaCl2, 1 mM MgCl2), supplemented with […] gentamycin. Healthy-looking stage V-VI oocytes were manually selected and randomly grouped for injection. A codon-optimized coding sequence of PfCRT was subcloned into the pSP64T expression vector and subsequently linearized using the restriction endonuclease BamHI or SalI (New England Biolabs GmbH). RNA for injection was transcribed in vitro using the mMESSAGE mMACHINE SP6 Transcription kit (Ambion), diluted with nuclease-free water to a final concentration of 0.6 μg/μL and stored at -80°C. RNA was injected using precision-bore glass capillary tubes (3.5-inch glass capillaries; Drummond Scientific Co.), which were pulled on a vertical puller (P-87 Flaming/Brown micropipette puller, Sutter Instrument Co.) and graduated. The micropipettes were connected to a microinjector (Nanoject II Auto-Nanoliter Injector, Drummond Scientific Co.). Injection was conducted under stereomicroscopic control. 50 nL of nuclease-free water alone (control oocytes) or 50 nL of nuclease-free water containing 30 ng of RNA was injected per oocyte. Injected oocytes were kept for 72 h at 18°C in ND96 buffer with two daily buffer changes before being used for further experiments.
(§2) Drug transport assays were performed as previously described. Briefly, measurements of radiolabeled drug uptake were made over 1 h, unless otherwise specified. […] Where specified, one or more unlabeled drugs were also present at the indicated concentrations. […] The uptake assays were terminated by removing the oocytes from the reaction medium and washing them three times with 2 mL of ice-cold ND96 buffer. Each oocyte was transferred to a separate scintillation vial and lysed by the addition of 200 μL of a 5% SDS solution. The radioactivity in the sample was measured using a liquid scintillation analyser Tri-Carb 4910 TR (PerkinElmer). Water-injected oocytes were analyzed in parallel as a negative control. The buffer from each condition was measured in duplicate in parallel to each experiment to transform counts per minute into pmol of drug. Drug uptake attributable to PfCRT was determined by subtracting the background uptake from water-injected oocytes from that of PfCRT-expressing oocytes. In all cases, at least three independent experiments were performed on oocytes from different frogs, and for each condition in an experiment, measurements were made from 10 oocytes per treatment.

PfCRT^HB3 = target: T2, PfCRT^HB3 (Plasmodium falciparum, UniProt Q8IBZ9); assay: Radiolabeled drug uptake in X. laevis oocytes expressing wild type PfCRT^HB3; assay type: cell-based; conditions: pH 6.0
T2 construct: expressed in transfected cells; host or cells: Xenopus laevis oocytes injected with in vitro transcribed RNA (pSP64T)
Experimental: as §1, §2

[1] = 50 μM PPQ, total uptake, one value per biological replicate
[2] = 50 μM PPQ, water-injected uptake subtracted, per replicate
[3] = 50 μM CQ, total uptake, one value per biological replicate
[4] = 50 μM CQ, water-injected uptake subtracted, per replicate

T2 sequence (Q8IBZ9 whole entry): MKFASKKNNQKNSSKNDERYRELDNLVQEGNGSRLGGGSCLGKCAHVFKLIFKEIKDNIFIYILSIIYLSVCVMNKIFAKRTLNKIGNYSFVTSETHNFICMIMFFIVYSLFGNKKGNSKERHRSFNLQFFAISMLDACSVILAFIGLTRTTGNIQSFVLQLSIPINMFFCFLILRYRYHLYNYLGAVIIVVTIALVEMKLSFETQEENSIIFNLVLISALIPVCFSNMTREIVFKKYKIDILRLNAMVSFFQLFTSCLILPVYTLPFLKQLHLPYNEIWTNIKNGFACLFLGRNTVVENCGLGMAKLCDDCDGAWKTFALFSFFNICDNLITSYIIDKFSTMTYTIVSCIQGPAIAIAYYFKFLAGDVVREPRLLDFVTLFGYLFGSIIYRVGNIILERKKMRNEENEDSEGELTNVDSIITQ

SMILES: Clc1ccc2c(N3CCN(CCCN4CCN(c5ccnc6cc(Cl)ccc56)CC4)CC3)ccnc2c1 [PPQ, piperaquine]
- PfCRTDd2_M343L-mediated PPQ uptake at 10 µM PPQ (PfCRT^Dd2_M343L; 10 µM PPQ, single replicates): 13.08 pmol oocyte-1 h-1 and 6.84 pmol oocyte-1 h-1 and 2.69 pmol oocyte-1 h-1
- PfCRTDd2_M343L-mediated PPQ uptake at 50 µM PPQ (PfCRT^Dd2_M343L; 50 µM PPQ, single replicates): 84.22 pmol oocyte-1 h-1 and 103.15 pmol oocyte-1 h-1 and 60.92 pmol oocyte-1 h-1 and 65.48 pmol oocyte-1 h-1 and 62.52 pmol oocyte-1 h-1 and 18.03 pmol oocyte-1 h-1
- PfCRTDd2_M343L-mediated PPQ uptake at 100 µM PPQ (PfCRT^Dd2_M343L; 100 µM PPQ, single replicates): 130.36 pmol oocyte-1 h-1 and 98.93 pmol oocyte-1 h-1 and 50.24 pmol oocyte-1 h-1
- PfCRTDd2_M343L-mediated PPQ uptake at 300 µM PPQ (PfCRT^Dd2_M343L; 300 µM PPQ, single replicates): 154.89 pmol oocyte-1 h-1 and 102.01 pmol oocyte-1 h-1 and 116.02 pmol oocyte-1 h-1
- PfCRTDd2_M343L-mediated PPQ uptake at 500 µM PPQ (PfCRT^Dd2_M343L; 500 µM PPQ, single replicates): 164.14 pmol oocyte-1 h-1 and 130.73 pmol oocyte-1 h-1 and 130.95 pmol oocyte-1 h-1
- Km (PfCRT^Dd2_M343L; Michaelis-Menten fit, 10-500 μM drug, pH 6, read-out: KM, Michaelis constant): 80 ± 16 µM
- PfCRTHB3I PPQ uptake at 30 min (PfCRT^HB3; [1]): 72.50 pmol oocyte-1 and 74.50 pmol oocyte-1 and 59.24 pmol oocyte-1
- PfCRTHB3 PPQ uptake at 10 min (PfCRT^HB3; [1]): 38.64 pmol oocyte-1 and 39.15 pmol oocyte-1 and 28.68 pmol oocyte-1
- PfCRTHB3 PPQ uptake at 60 min (PfCRT^HB3; [1]): 123.26 pmol oocyte-1 and 113.71 pmol oocyte-1 and 93.83 pmol oocyte-1
- PfCRTHB3 PPQ uptake at 90 min (PfCRT^HB3; [1]): 136.75 pmol oocyte-1 and 135.43 pmol oocyte-1 and 118.84 pmol oocyte-1
- PfCRTHB3 PPQ uptake at 120 min (PfCRT^HB3; [1]): 198.78 pmol oocyte-1 and 176.89 pmol oocyte-1 and 174.87 pmol oocyte-1
- PfCRTHB3 PPQ uptake at 180 min (PfCRT^HB3; [1]): 161.64 pmol oocyte-1 and 186.48 pmol oocyte-1 and 220.34 pmol oocyte-1
- PfCRTHB3-mediated PPQ uptake at 10 min (PfCRT^HB3; [2]): 8.47 pmol oocyte-1 and 8.98 pmol oocyte-1 and -1.48 pmol oocyte-1
- PfCRTHB3-mediated PPQ uptake at 30 min (PfCRT^HB3; [2]): 7.50 pmol oocyte-1 and 9.50 pmol oocyte-1 and -5.76 pmol oocyte-1
- PfCRTHB3-mediated PPQ uptake at 60 min (PfCRT^HB3; [2]): 17.15 pmol oocyte-1 and 7.60 pmol oocyte-1 and -12.28 pmol oocyte-1
- PfCRTHB3-mediated PPQ uptake at 90 min (PfCRT^HB3; [2]): 16.35 pmol oocyte-1 and 15.03 pmol oocyte-1 and -1.56 pmol oocyte-1
- PfCRTHB3-mediated PPQ uptake at 120 min (PfCRT^HB3; [2]): -20.70 pmol oocyte-1 and -22.71 pmol oocyte-1 and 1.19 pmol oocyte-1
- PfCRTHB3-mediated PPQ uptake at 180 min (PfCRT^HB3; [2]): 33.25 pmol oocyte-1 and -25.45 pmol oocyte-1 and -0.62 pmol oocyte-1

SMILES: CCN(CC)CCCC(C)Nc1ccnc2cc(Cl)ccc12 (stereo not drawn) [CQ, chloroquine]
- PfCRTDd2_M343L-mediated CQ uptake at 10 µM CQ (PfCRT^Dd2_M343L; 10 µM CQ, single replicates): 1.16 pmol oocyte-1 h-1 and 0.62 pmol oocyte-1 h-1 and 0.22 pmol oocyte-1 h-1
- PfCRTDd2_M343L-mediated CQ uptake at 50 µM CQ (PfCRT^Dd2_M343L; 50 µM CQ, single replicates): 2.13 pmol oocyte-1 h-1 and 3.20 pmol oocyte-1 h-1 and 2.38 pmol oocyte-1 h-1 and 2.37 pmol oocyte-1 h-1
- PfCRTDd2_M343L-mediated CQ uptake at 100 µM CQ (PfCRT^Dd2_M343L; 100 µM CQ, single replicates): 5.08 pmol oocyte-1 h-1 and 4.43 pmol oocyte-1 h-1 and 5.13 pmol oocyte-1 h-1
- PfCRTDd2_M343L-mediated CQ uptake at 300 µM CQ (PfCRT^Dd2_M343L; 300 µM CQ, single replicates): 10.45 pmol oocyte-1 h-1 and 11.10 pmol oocyte-1 h-1 and 13.47 pmol oocyte-1 h-1
- PfCRTDd2_M343L-mediated CQ uptake at 500 µM CQ (PfCRT^Dd2_M343L; 500 µM CQ, single replicates): 14.93 pmol oocyte-1 h-1 and 14.77 pmol oocyte-1 h-1 and 15.77 pmol oocyte-1 h-1
- Vmax, maximal velocity of drug transport (PfCRT^Dd2_M343L; Michaelis-Menten fit, 10-500 μM drug, pH 6): 31 ± 2 pmol oocyte^-1 h^-1
- PfCRTHB3 uptake of CQ at 10 min (PfCRT^HB3; [3]): 3.76 pmol oocyte-1 and 2.69 pmol oocyte-1 and 4.10 pmol oocyte-1 and 2.94 pmol oocyte-1
- PfCRTHB3 uptake of CQ at 30 min (PfCRT^HB3; [3]): 5.04 pmol oocyte-1 and 6.21 pmol oocyte-1 and 4.82 pmol oocyte-1
- PfCRTHB3 uptake of CQ at 60 min (PfCRT^HB3; [3]): 10.53 pmol oocyte-1 and 9.06 pmol oocyte-1 and 13.05 pmol oocyte-1 and 9.38 pmol oocyte-1
- PfCRTHB3 uptake of CQ at 90 min (PfCRT^HB3; [3]): 10.44 pmol oocyte-1 and 13.59 pmol oocyte-1 and 10.43 pmol oocyte-1
- PfCRTHB3 uptake of CQ at 120 min (PfCRT^HB3; [3]): 15.66 pmol oocyte-1 and 14.17 pmol oocyte-1 and 15.57 pmol oocyte-1
- PfCRTHB3 uptake of CQ at 180 min (PfCRT^HB3; [3]): 15.78 pmol oocyte-1 and 15.62 pmol oocyte-1 and 19.97 pmol oocyte-1
- PfCRTDd2_HB3-mediated CQ uptake at 60 min (PfCRT^HB3; [4]): 0.25 pmol oocyte-1 and -1.21 pmol oocyte-1 and 2.78 pmol oocyte-1 and -0.90 pmol oocyte-1
- PfCRTHB3-mediated CQ uptake at 10 min (PfCRT^HB3; [4]): 0.87 pmol oocyte-1 and -0.20 pmol oocyte-1 and 1.21 pmol oocyte-1 and 0.05 pmol oocyte-1
- PfCRTHB3-mediated CQ uptake at 30 min (PfCRT^HB3; [4]): 1.16 pmol oocyte-1 and -0.23 pmol oocyte-1 and 0.94 pmol oocyte-1 and -0.44 pmol oocyte-1
- PfCRTHB3-mediated CQ uptake at 90 min (PfCRT^HB3; [4]): -0.39 pmol oocyte-1 and 2.75 pmol oocyte-1 and -0.41 pmol oocyte-1
- PfCRTHB3-mediated CQ uptake at 120 min (PfCRT^HB3; [4]): 0.98 pmol oocyte-1 and -0.51 pmol oocyte-1 and 0.90 pmol oocyte-1
- PfCRTHB3-mediated CQ uptake at 180 min (PfCRT^HB3; [4]): -0.99 pmol oocyte-1 and -1.15 pmol oocyte-1 and 3.20 pmol oocyte-1
